Experiments:
MJ = assay: CTCL cytotoxicity, 72 hours; type: cell-based; settings: MJ cells
Protocol: MJ and HuT78 cells were grown in IMDM 20% FBS, and HH cells were grown in RPMI 10% FBS.

Loucy = assay: T-ALL growth inhibition; type: cell-based, human; settings: Loucy ALL cells, various concentrations
Protocol: To further explore the individual contributions of the varying PI3K isoforms on T-ALL cell growth, Loucy ALL cells were treated with doxorubicin and various PI3K inhibitors as shown in FIG. 32 at various concentrations as denoted in the figure.

[1] = test system: phospho-AKT in OCI-LY-8 cells; assay: phospho-AKT after BCR crosslinking; type: cell-based
Protocol: Activation of the PI3K pathway is an important component of normal B-cell receptor (BCR) signaling and has been implicated in the pathogenesis of DLBCL. […] There was rapid modulation of phospho-AKT and phospho-PRAS40 by 30 minutes, whereas modulation of phospho-S6 was not detected until after 8 hours.
These biochemical findings indicate a mechanistic rationale for combination of PI3K-δ,γ and BTK inhibition.

phospho-BTK in SU-DHL-4 = assay: phospho-BTK in DLBCL cells; type: cell-based
[2] = test system: SU-DHL-4 GCB DLBCL cell line; assay: Cell viability with Compound 292, ibrutinib or combination, 72 h CellTiter Glo; type: cell-based; settings: SU-DHL-4, 72 hours
DOHH-2 = settings: in combination with Compound 292
Protocol: (§1) The method is described as follows. Cells are thawed from a liquid nitrogen preserved state. Once cells have been expanded and divide at their expected doubling times, screening begins. Cells are seeded in growth media in either black 1536-well or 384-well tissue culture treated plates. […] These Tzero (T0) plates are read using ultra-sensitive luminescence on Envision plate readers (Perkin Elmer). […] All data points are collected via automated processes, quality controlled and analyzed using Zalicus software.
(§2) I ranges from 0% (when T=V) to 100% (when T=0). […] The measure of effect in the experiment can be the inhibition of cellular response relative to the untreated level (vehicle alone). For untreated vehicle and treated levels V and T, a fractional inhibition 1=1−T/V is calculated. The inhibition ranges from 0% at the untreated level to 100% when T=0 Inhibition levels are negative for agents that actually increase levels. Other effect measures, such as an activity ratio r=T/V may be more appropriate for some assays. When activity ratios (e.g, fold increase over […] control) are being used, the effect can be measured using an induction I=1n(T/V). With this definition, all effect expressions are the same as for inhibition.
(§3) Growth Inhibition (GI) is used as a measure of cell viability. […] A GI reading of 100% represents complete growth inhibition-T72 compound-treated and T0 vehicle signals are matched. […] A GI reading of 200% represents complete death of all cells in the culture well. Compounds reaching an activity plateau of GI 200% are considered cytotoxic. GI is calculated by applying the following test and equation: […]
(§4) Combination analysis data were collected in a 6×6 dose matrix. Synergy is calculated by comparing a combination's response to those of its single compound, against the drug-with-itself dose-additive reference model. Deviations from dose additivity may be assessed visually on an isobologram or numerically with a Combination Index (CI). […] Additive effect is CI=1.0. […] Antagonistic effect is CI>1.0.
(§5) To measure combination effects in excess of Loewe additivity, a scalar measure to characterize the strength of synergistic interaction termed the Synergy Score is devised. The Synergy Score is calculated as: […]
(§6) The fractional inhibition for each component agent and combination point in the matrix is calculated relative to the median of all vehicle-treated control wells. The Synergy Score equation integrates the experimentally-observed activity volume at each point in the matrix in excess of a model surface numerically derived from the activity of the component agents using the Loewe model for additivity. Additional terms in the Synergy Score equation (above) are used to normalize for various dilution factors used for individual agents and to allow for comparison of synergy scores across an entire experiment. The inclusion of positive inhibition gating or an Idata multiplier removes noise near the zero effect level, and biases results for synergistic interactions at that occur at high activity levels.
(§7) Loewe Volume (Loewe Vol) is used to assess the overall magnitude of the combination interaction in excess of the Loewe additivity model. Loewe Volume is particularly useful when distinguishing synergistic increases in a phenotypic activity (positive Loewe Volume) versus synergistic antagonisms (negative Loewe Volume). […] This model defines additivity as a non-synergistic combination interaction where the combination dose matrix surface should be indistinguishable from either drug crossed with itself.

Farage = settings: in combination with Compound 292
Protocol: as §1, §2, §3, §4, §5, §6, §7

GRANTA-519 = settings: in combination with Compound 292
Protocol: as §1, §2, §3, §4, §5, §6, §7

HBL-1 = settings: in combination with Compound 292
Protocol: as §1, §2, §3, §4, §5, §6, §7

HH = settings: in combination with Compound 292
Protocol: as §1, §2, §3, §4, §5, §6, §7

Jeko-1 = settings: in combination with Compound 292
Protocol: as §1, §2, §3, §4, §5, §6, §7

KARPAS-299 = settings: in combination with Compound 292
Protocol: as §1, §2, §3, §4, §5, §6, §7

KARPAS-422 = settings: in combination with Compound 292
Protocol: as §1, §2, §3, §4, §5, §6, §7

Mino = settings: in combination with Compound 292
Protocol: as §1, §2, §3, §4, §5, §6, §7

NCI-H929 = settings: in combination with Compound 292
Protocol: as §1, §2, §3, §4, §5, §6, §7

OCI-LY3 = settings: in combination with Compound 292
Protocol: as §1, §2, §3, §4, §5, §6, §7

OCI-Ly7 = settings: in combination with Compound 292
Protocol: as §1, §2, §3, §4, §5, §6, §7

OPM-2 = settings: in combination with Compound 292
Protocol: as §1, §2, §3, §4, §5, §6, §7

SU-DHL-10-epst = settings: in combination with Compound 292
Protocol: as §1, §2, §3, §4, §5, §6, §7

SU-DHL-4-epst = settings: in combination with Compound 292
Protocol: as §1, §2, §3, §4, §5, §6, §7

TMD8 = settings: in combination with Compound 292
Protocol: as §1, §2, §3, §4, §5, §6, §7

U-2932 = settings: in combination with Compound 292
Protocol: as §1, §2, §3, §4, §5, §6, §7

WSU-NHL = settings: in combination with Compound 292
Protocol: as §1, §2, §3, §4, §5, §6, §7

RL = assay: Combination with BTK inhibitor, 72 h ATPLite, 6x6 dose matrix (follicular lymphoma); type: cell-based; settings: in combination with Compound 292
Protocol: as §1, §2, §3, §4, §5, §6, §7

CC[C@H](Nc1ncnc2[nH]cnc12)c1nc2cccc(F)c2c(=O)n1-c1ccccc1 [GS-1101, (S)-2-(1-(9H-purin-6-ylamino)propyl)-5-fluoro-3-phenylquinazolin-4(3H)-one, reference compound]
cytotoxicity, sensitivity (MJ): resistant

COc1cccc2c1C(=O)c1c(O)c3c(c(O)c1C2=O)C[C@@](O)(C(=O)CO)C[C@@H]3O[C@H]1C[C@H](N)[C@H](O)[C@H](C)O1 [doxorubicin, reference compound]
percent inhibition of Loucy cells with dose (Loucy): different pattern

C=CC(=O)N1CCC[C@@H](n2nc(-c3ccc(Oc4ccccc4)cc3)c3c(N)ncnc32)C1 [ibrutinib, 1-[(3R)-3-[4-Amino-3-(4-phenoxyphenyl)pyrazolo[3,4-d]pyrimidin-1-yl]piperidin-1-yl]prop-2-en-1-one]
inhibition of the increase in phospho-AKT [1]: only partially inhibited
inhibition of phospho-BTK (phospho-BTK in SU-DHL-4): robust inhibition
cell viability, monotherapy [2]: dose dependently inhibited viability
CI50 (growth inhibition) (DOHH-2): S (S=0.01 to <0.5)
CI50 (inhibition) (DOHH-2): S (S=0.01 to <0.5)
Synergy Score (growth inhibition) (DOHH-2): A3 (A3=>3)
Synergy Score (inhibition) (DOHH-2): A3 (A3=>3)
CI50 (growth inhibition) (Farage): S (S=0.01 to <0.5)
CI50 (inhibition) (Farage): S (S=0.01 to <0.5)
Synergy Score (growth inhibition) (Farage): A3 (A3=>3)
Synergy Score (inhibition) (Farage): A3 (A3=>3)
CI50 (growth inhibition) (GRANTA-519): S (S=0.01 to <0.5)
Synergy Score (growth inhibition) (GRANTA-519): A2 (A2=1 to <3)
Synergy Score (inhibition) (GRANTA-519): A1 (A1=0.0001 to <1)
CI50 (growth inhibition) (HBL-1): S (S=0.01 to <0.5)
Synergy Score (growth inhibition) (HBL-1): A3 (A3=>3)
Synergy Score (inhibition) (HBL-1): A1 (A1=0.0001 to <1)
CI50 (growth inhibition) (HH): S (S=0.01 to <0.5)
CI50 (inhibition) (HH): S (S=0.01 to <0.5)
Synergy Score (growth inhibition) (HH): A2 (A2=1 to <3)
Synergy Score (inhibition) (HH): A2 (A2=1 to <3)
CI50 (growth inhibition) (Jeko-1): S (S=0.01 to <0.5)
CI50 (inhibition) (Jeko-1): T (T=0.5 to <0.7)
Synergy Score (growth inhibition) (Jeko-1): A2 (A2=1 to <3)
Synergy Score (inhibition) (Jeko-1): A2 (A2=1 to <3)
Synergy Score (growth inhibition) (KARPAS-299): A1 (A1=0.0001 to <1)
Synergy Score (inhibition) (KARPAS-299): A1 (A1=0.0001 to <1)
CI50 (growth inhibition) (KARPAS-422): S (S=0.01 to <0.5)
CI50 (inhibition) (KARPAS-422): S (S=0.01 to <0.5)
Synergy Score (growth inhibition) (KARPAS-422): A2 (A2=1 to <3)
Synergy Score (inhibition) (KARPAS-422): A2 (A2=1 to <3)
CI50 (growth inhibition) (Mino): T (T=0.5 to <0.7)
CI50 (inhibition) (Mino): S (S=0.01 to <0.5)
Synergy Score (growth inhibition) (Mino): A3 (A3=>3)
Synergy Score (inhibition) (Mino): A2 (A2=1 to <3)
CI50 (growth inhibition) (NCI-H929): U (U=0.7 to <1)
CI50 (inhibition) (NCI-H929): S (S=0.01 to <0.5)
Synergy Score (growth inhibition) (NCI-H929): A2 (A2=1 to <3)
Synergy Score (inhibition) (NCI-H929): A1 (A1=0.0001 to <1)
Synergy Score (growth inhibition) (OCI-LY3): A1 (A1=0.0001 to <1)
Synergy Score (inhibition) (OCI-LY3): A1 (A1=0.0001 to <1)
Synergy Score (growth inhibition) (OCI-Ly7): A1 (A1=0.0001 to <1)
Synergy Score (inhibition) (OCI-Ly7): A1 (A1=0.0001 to <1)
Synergy Score (growth inhibition) (OPM-2): A1 (A1=0.0001 to <1)
Synergy Score (inhibition) (OPM-2): A1 (A1=0.0001 to <1)
CI50 (growth inhibition) (SU-DHL-10-epst): S (S=0.01 to <0.5)
CI50 (inhibition) (SU-DHL-10-epst): S (S=0.01 to <0.5)
Synergy Score (growth inhibition) (SU-DHL-10-epst): A3 (A3=>3)
Synergy Score (inhibition) (SU-DHL-10-epst): A3 (A3=>3)
CI50 (growth inhibition) (SU-DHL-4-epst): S (S=0.01 to <0.5)
CI50 (inhibition) (SU-DHL-4-epst): S (S=0.01 to <0.5)
Synergy Score (growth inhibition) (SU-DHL-4-epst): A3 (A3=>3)
Synergy Score (inhibition) (SU-DHL-4-epst): A3 (A3=>3)
CI50 (growth inhibition) (TMD8): S (S=0.01 to <0.5)
CI50 (inhibition) (TMD8): S (S=0.01 to <0.5)
Synergy Score (growth inhibition) (TMD8): A3 (A3=>3)
Synergy Score (inhibition) (TMD8): A3 (A3=>3)
CI50 (growth inhibition) (U-2932): S (S=0.01 to <0.5)
CI50 (inhibition) (U-2932): T (T=0.5 to <0.7)
Synergy Score (growth inhibition) (U-2932): A2 (A2=1 to <3)
Synergy Score (inhibition) (U-2932): A1 (A1=0.0001 to <1)
CI50 (growth inhibition) (WSU-NHL): T (T=0.5 to <0.7)
CI50 (inhibition) (WSU-NHL): S (S=0.01 to <0.5)
Synergy Score (growth inhibition) (WSU-NHL): A3 (A3=>3)
Synergy Score (inhibition) (WSU-NHL): A3 (A3=>3)
CI50 (growth inhibition) (RL): U (U=0.7 to <1)
CI50 (inhibition) (RL): W (W=≧1)
Synergy Score (growth inhibition) (RL): A2 (A2=1 to <3)
Synergy Score (inhibition) (RL): A2 (A2=1 to <3)
